Patent publication US20170129903A1, “COMPOUNDS COMPRISING 1,1a,2,5a-TETRAHYDROSPIRO[INDOLE-3,2a-PYRROLE]-2,5a-DIONE SYSTEM AS INHIBITORS P53-MDM2 PROTEIN-PROTEIN INTERACTION” (ADAMED SP. Z O.O., priority 2014, published 2017)

Biological target: T1, p53-Mdm2 interaction (N-terminal domain of Mdm2 protein, amino acids 1-111) (Homo sapiens, UniProt Q00987)
T1 construct: N-terminal domain of Mdm2 protein (amino acids 1-111)
Test: Fluorescence polarization (FP) binding assay of p53-Mdm2 interaction
Settings: FP assay, 130 nM Mdm2, FAM-labelled p53 peptide; Ki transformed from IC50 using Kenakin equation
Procedure: The inhibition of p53-Mdm2 interaction was measured using a fluorescence polarization (FP) binding assay. FP measures the rotational movement of molecules in a homogenous suspension. For this assay, N-terminal domain of Mdm2 protein (amino acids 1-111) is combined with a fluorescein-labelled (FAM) peptide derived from p53 trans-activation domain. Upon excitation of the fluorescent ligand with linearly polarized light, […]. If the peptide is bound by Mdm2, rotation will slow down and the perpendicular component will decrease. Disruption of the formation of the peptide-Mdm2 complex due to an inhibitor molecule binding to the p53 binding site of Mdm2 results in faster rotation of the peptide.
Fluorescence polarization experiments were read on Tecan Infinite M1000 reader with the 470 nm excitation and 520 nm emission filters for fluorescein. The fluorescence polarization was measured in black 96-well plates (Corning, CLS3991) in room temperature. Purity of Mdm2 was controlled at >95%. Reaction buffer was optimized by adding 5 mM DTT and 0.1% zwitterionic detergent CHAPS to reduce effect of nonspecific interactions.
The test was performed by combining successive dilution of compounds diluted in dimethyl sulfoxide (DMSO, 5% final concentration) with 130 nM Mdm2 in reaction buffer (PBS, 0.1% CHAPS, 5 mM DTT (dithiothreitol)). After 15 minutes of incubation in room temperature […] FAM-labelled peptide was added. Final reading was performed after 90 minutes of incubation. Dose-dependent binding curves and IC50 values were calculated using GraphPad Prism5 and next transformed to Ki values using Kenakin equation.

T1 sequence (Q00987 1-111): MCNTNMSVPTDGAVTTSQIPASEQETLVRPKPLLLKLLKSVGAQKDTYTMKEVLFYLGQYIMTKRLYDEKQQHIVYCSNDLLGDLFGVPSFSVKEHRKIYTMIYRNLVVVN

Compound | Ki [nM]
COc1ccc(C(=O)O)cc1-n1nc2c(c1C(C)C)C1(C(=O)Nc3cc(Cl)ccc31)N(c1cc(Cl)ccc1O)C2=O (stereo not drawn) [Compound 76, 3-[6-chloro-5′-(5-chloro-2-hydroxy-phenyl)-2,6′-dioxo-3′-(propan-2-yl)-1,2,5′,6′-tetrahydro-2′H-spiro[indole-3,4′-pyrrolo[3,4-c]pyrazole]-2′-yl]-4-methoxybenzoic acid] | 3.6
O=C(C1=C(O)C(=O)N(c2cccc(Cl)c2)C12C(=O)Nc1cc(Cl)ccc12)c1ccccc1 (stereo not drawn) [Compound 3, 3′-benzoyl-6-chloro-1′-(3-chlorophenyl)-4′-hydroxy-1,1′,2,5′-tetrahydrospiro[indole-3,2′-pyrrole]-2,5′-dione] | 51
CCC(C)SC1=C(O)C(=O)N(c2cccc(Cl)c2)C12C(=O)Nc1cc(Cl)ccc12 (stereo not drawn) [Compound 57, 3′-(butan-2-ylsulfanyl)-6-chloro-1′-(3-chlorophenyl)-4′-hydroxy-1,1′,2,5′-tetrahydrospiro[indole-3,2′-pyrrole]-2,5′-dione] | 79
CC(C)(C)SC1=C(O)C(=O)N(c2cccc(Cl)c2)C12C(=O)Nc1cc(Cl)ccc12 (stereo not drawn) [Compound 58, 3′-(tert-butylsulfanyl)-6-chloro-1′-(3-chlorophenyl)-4′-hydroxy-1,1′,2,5′-tetrahydrospiro[indole-3,2′-pyrrole]-2,5′-dione] | 82
CC(C)(C)C(=O)C1=C(O)C(=O)N(c2cccc(Cl)c2)C12C(=O)Nc1cc(Cl)ccc12 (stereo not drawn) [Compound 6, 6-chloro-1′-(3-chlorophenyl)-3′-(2,2-tert-butanoyl)-4′-hydroxy-1,1′,2,5′-tetrahydrospiro[indole-3,2′-pyrrole]-2,5′-dione] | 102
COc1ccc(Cl)cc1N1C(=O)C(O)=C(C(=O)C2(C)CC2)C12C(=O)Nc1cc(Cl)ccc12 (stereo not drawn) [Compound 7, 6-chloro-1′-(5-chloro-2-methoxyphenyl)-4′-hydroxy-3′-(1-methylcyclopropane-carbonyl)-1,1′,2,5′-tetrahydrospiro[indole-3,2′-pyrrole]-2,5′-dione] | 700
O=C1C(O)=C(Sc2ccc(Cl)cc2)[C@@]2(C(=O)Nc3cc(Cl)ccc32)N1c1cccc(Cl)c1 [Compound 56, (3R)-6-chloro-1′-(3-chlorophenyl)-3′[(4-chlorophenyl)sulfanyl]-4′-hydroxy-1,1′,2,5′-tetrahydrospiro[indole-3,2′-pyrrole]-2,5′-dione] | 100
COc1cccc(OC)c1-n1nc2c(c1C(C)C)C1(C(=O)Nc3cc(Cl)ccc31)N(c1cc(Cl)ccc1C)C2=O (stereo not drawn) [Compound 70, 6-chloro-5′-(5-chloro-2-methylphenyl)-2′-(2,6-dimethoxyphenyl)-3′-(propan-2-yl)-1,2,5′,6′-tetrahydro-2′H-spiro[indole-3,4′-pyrrolo[3,4-c]pyrazole]-2,6′-dione] | 120
O=C(O)CNC1=C(c2ccccc2)C2(C(=O)Nc3cc(Cl)ccc32)N(c2cccc(Cl)c2)C1=O (stereo not drawn) [Compound 49, 2-{[6-chloro-1′-(3-chlorophenyl)-2,5′-dioxo-3′-phenyl-1,1′,2,5′-tetrahydrospiro [indole-3,2′-pyrrole]-4′-yl]amino}acetic acid] | 38
O=C1C(O)=C(Sc2ccc(Cl)cc2)[C@]2(C(=O)Nc3cc(Cl)ccc32)N1c1cccc(Cl)c1 [Compound 55, (3S)-6-chloro-1′-(3-chlorophenyl)-3′-[(4-chlorophenyl)sulfanyl]-4′-hydroxy-1,1′,2,5′-tetrahydrospiro[indole-3,2′-pyrrole]-2,5′-dione] | 1910
O=C(O)CSC1=C(c2ccccc2)C2(C(=O)Nc3cc(Cl)ccc32)N(c2cccc(Cl)c2)C1=O (stereo not drawn) [Compound 51, 2-[6-chloro-1′-(3-chlorophenyl)-2,5′-dioxo-3′-phenyl-1,1′,2,5′-tetrahydrospiro [indole-3,2′-pyrrole]-4′-ylsulfanyl]acetic acid] | 130
CC1(C(=O)C2=C(O)C(=O)N(c3cccc(Cl)c3)C23C(=O)Nc2cc(Cl)ccc23)CC1 (stereo not drawn) [Compound 5, 6-chloro-1′-(3-chlorophenyl)-4′-hydroxy-3′-(1-methylcyclopropanecarbonyl)-1,1′,2,5′-tetrahydrospiro[indole-3,2′-pyrrole]-2,5′-dione] | 194
COc1ccccc1-n1cc2c(c1C(C)C)C1(C(=O)Nc3cc(Cl)ccc31)N(c1cccc(Cl)c1)C2=O (stereo not drawn) [Compound 89, 6-chloro-2′-(3-chlorophenyl)-5′-(2-methoxyphenyl)-6′-(propan-2-yl)-1,2,3′,5′-tetrahydro-2′H-spiro[indole-3,1′-pyrrolo [3,4-c]pyrrole]-2,3′-dione] | 5.3
COc1ccccc1-n1nc2c(c1C(C)C)C1(C(=O)Nc3cc(Cl)ccc31)N(c1cc(Cl)c(=O)n(C)c1)C2=O (stereo not drawn) [Compound 63, 6-chloro-5′-(5-chloro-1-methyl-6-oxo-1,6-dihydropyridin-3-yl)-2′-(2-methoxy-phenyl)-3′-(propan-2-yl)-1,2,5′,6′-tetrahydro-2′H-spiro[indole-3,4′-pyrrolo [3,4-c]pyrazole]-2,6′-dione] | 2.4
COc1ccccc1-n1nc(C(C)C)c2c1C(=O)N(c1cc(Cl)ccc1C)C21C(=O)Nc2cc(Cl)ccc21 (stereo not drawn) [Compound 32, 6-chloro-5′-(5-chloro-2-methylphenyl)-1′-(2-methoxyphenyl)-3′-(propan-2-yl)-1,2,5′,6′-tetrahydro-1′H-spiro[indole-3,4′-pyrrolo[3,4-c]pyrazole]-2,6′-dione] | 1390
CC(C)(C)CN1C(=O)C(O)=C(c2cccc(Cl)c2)C12C(=O)Nc1cc(Cl)ccc12 (stereo not drawn) [Compound 36, 6-chloro-3′-(3-chlorophenyl)-1′-(2,2-dimethylpropyl)-4′-hydroxy-1,1′,2,5′-tetrahydrospiro[indole-3,2′-pyrrole]-2,5′-dione] | 295
COc1ccc(C(N)=O)cc1-n1nc2c(c1C(C)C)C1(C(=O)Nc3cc(Cl)ccc31)N(c1cc(Cl)ccc1O)C2=O (stereo not drawn) [Compound 75, 3-[6-chloro-5′-(5-chloro-2-hydroxy-phenyl)-2,6′-dioxo-3′-(propan-2-yl)-1,2,5′,6′-tetrahydro-2′H-spiro[indole-3,4′-pyrrolo[3,4-c]pyrazole]-2′-yl]-4-methoxybenzamide] | 3.6
O=C1C(O)=C(c2ccccc2)C2(C(=O)Nc3cc(F)ccc32)N1c1cccc(Cl)c1 (stereo not drawn) [Compound 42, 1′-(3-chlorophenyl)-6-fluoro-4′-hydroxy-3′-phenyl-1,1′,2,5′-tetrahydrospiro[indole-3,2′-pyrrole]-2,5′-dione] | 90
CCOC(=O)CNC1=C(C(=O)C2(C)CC2)C2(C(=O)Nc3cc(Cl)ccc32)N(c2cccc(Cl)c2)C1=O (stereo not drawn) [Compound 15, ethyl 2-{[6-chloro-1′-(3-chlorophenyl)-3′-(1-methylcyclopropanecarbonyl)-2,5′-dioxo-1,1′,2,5′-tetrahydrospiro[indole-3,2′-pyrrole]-4′-yl]amino}acetate] | 349
COc1ccccc1-n1cc2c(c1C(C)C)C1(C(=O)Nc3cc(Cl)ccc31)N(c1cc(Cl)ccc1N)C2=O (stereo not drawn) [Compound 91, 2′-(2-amino-5-chlorophenyl)-6-chloro-5′-(2-methoxyphenyl)-6′-(propan-2-yl)-1,2,3′,5′-tetrahydro-2′H-spiro[indole-3,1′-pyrrolo[3,4-c]pyrrole]-2,3′-dione] | 4.5
Cc1ccc(Cl)cc1N1C(=O)C(O)=C(C(=O)C2(C)CC2)C12C(=O)Nc1cc(Cl)ccc12 (stereo not drawn) [Compound 2, 6-chloro-1′-(5-chloro-2-methylphenyl)-4′-hydroxy-3′-(1-methylcyclopropane-carbonyl)-1,1′,2,5′-tetrahydrospiro[indole-3,2′-pyrrole]-2,5′-dione] | 122
CC1(C(=O)C2=C(O)C(=O)N(c3cc(Cl)ccc3F)C23C(=O)Nc2cc(Cl)ccc23)CC1 (stereo not drawn) [Compound 1, 6-chloro-1′-(5-chloro-2-fluorophenyl)-4′-hydroxy-3′-(1-methylcyclopropane-carbonyl)-1,1′,2,5′-tetrahydrospiro[indole-3,2′-pyrrole]-2,5′-dione] | 354
CC(C)C(=O)C1=C(O)C(=O)N(c2cc(Cl)ccc2O)C12C(=O)Nc1cc(Cl)ccc12 (stereo not drawn) [Compound 9, 6-chloro-1′-(5-chloro-2-hydroxyphenyl)-4′-hydroxy-3′-(iso-propanoyl)-1,1′,2,5′-tetrahydrospiro[indole-3,2′-pyrrole]-2,5′-dione] | 268
O=C1C(O)=C(c2ccccc2)C2(C(=O)Nc3ccc(Cl)cc32)N1c1cccc(Cl)c1 (stereo not drawn) [Compound 38, 5-chloro-1′-(3-chlorophenyl)-4′-hydroxy-3′-phenyl-1,1′,2,5′-tetrahydrospiro[indole-3,2′-pyrrole]-2,5′-dione] | 550
CC(C)c1[nH]nc2c1C1(C(=O)Nc3cc(Cl)ccc31)N(c1cc(Cl)ccn1)C2=O (stereo not drawn) [Compound 82, 6-chloro-5′-(4-chloropyridin-2-yl)-3′-(propan-2-yl)-1,2,5′,6′-tetrahydro-2′H-spiro [indole-3,4′-pyrrolo[3,4-c]pyrazole]-2,6′-dione] | 425
Cc1ccc(Cl)cc1N1C(=O)C(O)=C(C(=O)C(C)C)C12C(=O)Nc1cc(Cl)ccc12 (stereo not drawn) [Compound 8, 6-chloro-1′-(5-chloro-2-methylphenyl)-4′-hydroxy-3′-(iso-propanoyl)-1,1′,2,5′-tetrahydrospiro[indole-3,2′-pyrrole]-2,5′-dione] | 120

Same assay, conditions: G=S

Compound | times less potent than Compound 56 (enantiomer)
O=C1C(O)=C(Sc2ccc(Cl)cc2)[C@]2(C(=O)Nc3cc(Cl)ccc32)N1c1cccc(Cl)c1 [Compound 55, (3S)-6-chloro-1′-(3-chlorophenyl)-3′-[(4-chlorophenyl)sulfanyl]-4′-hydroxy-1,1′,2,5′-tetrahydrospiro[indole-3,2′-pyrrole]-2,5′-dione] | about 19 times
